Data published in patent publication US20040110138A1, “Method for the detection of multiple genetic targets” (University of Ottawa, priority 2002, published 2004).

Tested on: coagulase-negative Staphylococci (CoNS)
Experiment: Oxacillin MIC by agar dilution (NCCLS M100-S10, M7), isolate retest
Assay type: cell-based
Procedure: Blood culture bottles that were flagged as positive by the BacT/Alert system (Organon Teknika Corp., Durham N.C.) were processed by the Microbiology laboratory using standard microbiologic methods (Kloos & Bannerman, 1999). S. aureus was identified by a positive tube coagulase test. Oxacillin susceptibility for S. aureus was determined using the oxacillin salt agar screen method (NCCLS M100-S10, M7) and for coagulase-negative Staphylococci (CoNS) using disk diffusion testing (NCCLS M100-S10, M2).
In cases where there were discrepancies between the mecA PCR result of the blood culture bottle contents and the initial susceptibility result for the isolate recovered from the bottle, the isolate was re-tested for the mecA gene, oxacillin MIC was determined by agar dilution (NCCLS M100-S10, M7) and disk diffusion testing for oxacillin was repeated (NCCLS M100-S10, M2).

## Cc1onc(-c2ccccc2)c1C(=O)N[C@@H]1C(=O)N2[C@@H]1SC(C)(C)[C@@H]2C(=O)O [Oxacillin]
Isolate from bottle 8, initially reported as MS-CoNS
  Oxacillin MIC: 2.0
Isolate from bottle 10, initially reported as MR-CoNS
  Oxacillin MIC: 0.5
